Results as given in patent US20050197350A1, “Novel quinoline, tetrahydroquinazoline, and pyrimidine derivatives and methods of treatment related to the use thereof” (TAISHO PHARMACEUTICAL CO., LTD., priority 2003, published 2005).

tested on: MCH receptors; assay: MCH receptor activity class (method not given); conditions: MCH receptor activity class 1-3 (percent of control at 10^-7 M or IC50)

Q: CCCCc1ccc(NC(=S)N[C@H]2CC[C@@H](Nc3cc(N(C)C)c4ccccc4n3)CC2)c(C)c1 [compound 2313] was tested. Which class did it give?
A: 3 (Class 3 The value of percent of control at 10^−7 M was more than 60% or the value of IC50 was more than 200 nM.)

Q: With COc1cc([N+](=O)[O-])ccc1NC(=S)N[C@H]1CC[C@@H](Nc2nccc(N(C)C)n2)CC1 [compound 2314] as the compound, how does the class read?
A: 3 (Class 3 The value of percent of control at 10^−7 M was more than 60% or the value of IC50 was more than 200 nM.)

Q: For COc1ccc(C)cc1NC(=S)N[C@H]1CC[C@@H](Nc2nccc(N(C)C)n2)CC1 [compound 2315], which class is on record?
A: 3 (Class 3 The value of percent of control at 10^−7 M was more than 60% or the value of IC50 was more than 200 nM.)

Q: CN(C)c1ccnc(N[C@H]2CC[C@@H](NC(=S)Nc3ccc(Br)cc3Cl)CC2)n1 [compound 2316] was tested. Which class did it give?
A: 3 (Class 3 The value of percent of control at 10^−7 M was more than 60% or the value of IC50 was more than 200 nM.)

Q: CN(C)c1ccnc(N[C@H]2CC[C@@H](NC(=S)Nc3ccc(I)cc3)CC2)n1 [compound 2317] was tested. Which class did it give?
A: 3 (Class 3 The value of percent of control at 10^−7 M was more than 60% or the value of IC50 was more than 200 nM.)

Q: For CN(C)c1ccnc(N[C@H]2CC[C@@H](NC(=S)Nc3c(Cl)cc(Cl)cc3Cl)CC2)n1 [compound 2319], which class is on record?
A: 3 (Class 3 The value of percent of control at 10^−7 M was more than 60% or the value of IC50 was more than 200 nM.)

Q: With Cc1cc(C)c(NC(=S)N[C@H]2CC[C@@H](Nc3nccc(N(C)C)n3)CC2)c(C)c1 [compound 2320, N-(cis-4-{[4-(dimethylamino)pyrimidin-2-yl]amino}cyclohexyl)-N′-mesitylthiourea] as the compound, how does the class read?
A: 1 (Class 1: The value of percent of control at 10^−7 M was less than 40% or the value of IC50 was less than 50 nM.)

Q: Cc1ccc(NC(=S)N[C@H]2CC[C@@H](Nc3nccc(N(C)C)n3)CC2)c(C)c1 [compound 2321] was tested. Which class did it give?
A: 3 (Class 3 The value of percent of control at 10^−7 M was more than 60% or the value of IC50 was more than 200 nM.)

Q: Which class does the source give for CCc1cccc(CC)c1NC(=S)N[C@H]1CC[C@@H](Nc2nccc(N(C)C)n2)CC1 [compound 2322] here?
A: 3 (Class 3 The value of percent of control at 10^−7 M was more than 60% or the value of IC50 was more than 200 nM.)

Q: Cc1ccc(NC(=S)N[C@H]2CC[C@@H](Nc3nccc(N(C)C)n3)CC2)c(Br)c1 [compound 2323] was tested. Which class did it give?
A: 3 (Class 3 The value of percent of control at 10^−7 M was more than 60% or the value of IC50 was more than 200 nM.)

Q: How did the class turn out when CN(C)c1ccnc(N[C@H]2CC[C@@H](NC(=S)NCc3ccccc3Cl)CC2)n1 [compound 2324] was run?
A: 3 (Class 3 The value of percent of control at 10^−7 M was more than 60% or the value of IC50 was more than 200 nM.)

Q: CCc1cccc(C)c1NC(=S)N[C@H]1CC[C@@H](Nc2nccc(N(C)C)n2)CC1 [compound 2325] was tested. Which class did it give?
A: 3 (Class 3 The value of percent of control at 10^−7 M was more than 60% or the value of IC50 was more than 200 nM.)

Q: CC(C)c1ccccc1NC(=S)N[C@H]1CC[C@@H](Nc2nccc(N(C)C)n2)CC1 [compound 2326] was tested. Which class did it give?
A: 3 (Class 3 The value of percent of control at 10^−7 M was more than 60% or the value of IC50 was more than 200 nM.)

Q: For COC(=O)c1cccc(NC(=S)N[C@H]2CC[C@@H](Nc3nccc(N(C)C)n3)CC2)c1 [compound 2327], which class is on record?
A: 3 (Class 3 The value of percent of control at 10^−7 M was more than 60% or the value of IC50 was more than 200 nM.)

Q: For Cc1cc(Br)cc(C)c1NC(=S)N[C@H]1CC[C@@H](Nc2nccc(N(C)C)n2)CC1 [compound 2328, N-(4-bromo-2,6-dimethylphenyl)-N′-(cis-4-{[4-(dimethylamino)pyrimidin-2-yl]amino}cyclohexyl)thiourea], which class is on record?
A: 1 (Class 1: The value of percent of control at 10^−7 M was less than 40% or the value of IC50 was less than 50 nM.)

Q: How did the class turn out when Cc1cc(Br)ccc1NC(=S)N[C@H]1CC[C@@H](Nc2nccc(N(C)C)n2)CC1 [compound 2329] was run?
A: 3 (Class 3 The value of percent of control at 10^−7 M was more than 60% or the value of IC50 was more than 200 nM.)

Q: CN(C)c1ccnc(N[C@H]2CC[C@@H](NC(=S)Nc3ccc(Br)cc3C(F)(F)F)CC2)n1 [compound 2330] was tested. Which class did it give?
A: 3 (Class 3 The value of percent of control at 10^−7 M was more than 60% or the value of IC50 was more than 200 nM.)

Q: For Cc1cc(Cl)ccc1NC(=S)N[C@H]1CC[C@@H](Nc2nccc(N(C)C)n2)CC1 [compound 2331], which class is on record?
A: 3 (Class 3 The value of percent of control at 10^−7 M was more than 60% or the value of IC50 was more than 200 nM.)

Q: How did the class turn out when CN(C)c1ccnc(N[C@H]2CC[C@@H](NC(=S)NCc3cccc4ccccc34)CC2)n1 [compound 2332] was run?
A: 3 (Class 3 The value of percent of control at 10^−7 M was more than 60% or the value of IC50 was more than 200 nM.)

Q: With COc1cccc(CNC(=S)N[C@H]2CC[C@@H](Nc3nccc(N(C)C)n3)CC2)c1OC [compound 2333] as the compound, how does the class read?
A: 3 (Class 3 The value of percent of control at 10^−7 M was more than 60% or the value of IC50 was more than 200 nM.)

Q: For Cc1cc(C)c(NC(=S)N[C@H]2CC[C@@H](Nc3nccc(N(C)C)n3)CC2)cc1C [compound 2334], which class is on record?
A: 3 (Class 3 The value of percent of control at 10^−7 M was more than 60% or the value of IC50 was more than 200 nM.)

Q: CN(C)c1ccnc(N[C@H]2CC[C@@H](NC(=S)Nc3ccccc3-c3ccccc3)CC2)n1 [compound 2335] was tested. Which class did it give?
A: 3 (Class 3 The value of percent of control at 10^−7 M was more than 60% or the value of IC50 was more than 200 nM.)

Q: Cc1cc([N+](=O)[O-])ccc1NC(=S)N[C@H]1CC[C@@H](Nc2nccc(N(C)C)n2)CC1 [compound 2336] was tested. Which class did it give?
A: 3 (Class 3 The value of percent of control at 10^−7 M was more than 60% or the value of IC50 was more than 200 nM.)

Q: Which class does the source give for CN(C)c1ccnc(N[C@H]2CC[C@@H](NC(=S)NCc3cccc(Cl)c3)CC2)n1 [compound 2337] here?
A: 3 (Class 3 The value of percent of control at 10^−7 M was more than 60% or the value of IC50 was more than 200 nM.)

Q: Which class does the source give for CCOC(=O)c1cccc(NC(=S)N[C@H]2CC[C@@H](Nc3nccc(N(C)C)n3)CC2)c1 [compound 2338] here?
A: 3 (Class 3 The value of percent of control at 10^−7 M was more than 60% or the value of IC50 was more than 200 nM.)

Q: For CN(C)c1ccnc(N[C@H]2CC[C@@H](NC(=S)Nc3ccc(Cl)cc3C(F)(F)F)CC2)n1 [compound 2339], which class is on record?
A: 3 (Class 3 The value of percent of control at 10^−7 M was more than 60% or the value of IC50 was more than 200 nM.)

Q: Cc1cc(F)ccc1NC(=S)N[C@H]1CC[C@@H](Nc2nccc(N(C)C)n2)CC1 [compound 2340] was tested. Which class did it give?
A: 3 (Class 3 The value of percent of control at 10^−7 M was more than 60% or the value of IC50 was more than 200 nM.)

Q: For COc1ccc(NC(=S)N[C@H]2CC[C@@H](Nc3nccc(N(C)C)n3)CC2)c(C)c1 [compound 2341], which class is on record?
A: 3 (Class 3 The value of percent of control at 10^−7 M was more than 60% or the value of IC50 was more than 200 nM.)

Q: With COc1cc(OC)c(NC(=S)N[C@H]2CC[C@@H](Nc3nccc(N(C)C)n3)CC2)cc1Cl [compound 2342] as the compound, how does the class read?
A: 1 (Class 1: The value of percent of control at 10^−7 M was less than 40% or the value of IC50 was less than 50 nM.)

Q: Which class does the source give for C[C@@H](NC(=S)N[C@H]1CC[C@@H](Nc2nccc(N(C)C)n2)CC1)c1ccccc1 [compound 2343] here?
A: 3 (Class 3 The value of percent of control at 10^−7 M was more than 60% or the value of IC50 was more than 200 nM.)

Q: Which class does the source give for Cc1cccc(NC(=S)N[C@H]2CC[C@@H](Nc3nccc(N(C)C)n3)CC2)c1C [compound 2344] here?
A: 3 (Class 3 The value of percent of control at 10^−7 M was more than 60% or the value of IC50 was more than 200 nM.)

Q: With CN(C)c1ccnc(N[C@H]2CC[C@@H](NC(=S)Nc3c(F)cc(Br)cc3Br)CC2)n1 [compound 2345] as the compound, how does the class read?
A: 2 (Class 2: The value of percent of control at 10^−7 M was from 40% to 60% or the value of IC′50 was from 50 nM to 200 nM.)

Q: With Cc1cc(Cl)cc(Cl)c1NC(=S)N[C@H]1CC[C@@H](Nc2nccc(N(C)C)n2)CC1 [compound 2346, N-(2,4-dichloro-6-methylphenyl)-N′-(cis-4-{[4-(dimethylamino)pyrimidin-2-yl]amino}cyclohexyl)thiourea] as the compound, how does the class read?
A: 2 (Class 2: The value of percent of control at 10^−7 M was from 40% to 60% or the value of IC′50 was from 50 nM to 200 nM.)

Q: CCOc1ccccc1NC(=S)N[C@H]1CC[C@@H](Nc2nccc(N(C)C)n2)CC1 [compound 2347] was tested. Which class did it give?
A: 3 (Class 3 The value of percent of control at 10^−7 M was more than 60% or the value of IC50 was more than 200 nM.)

Q: Which class does the source give for Cc1cccc(C(C)C)c1NC(=S)N[C@H]1CC[C@@H](Nc2nccc(N(C)C)n2)CC1 [compound 2348] here?
A: 3 (Class 3 The value of percent of control at 10^−7 M was more than 60% or the value of IC50 was more than 200 nM.)

Q: How did the class turn out when CN(C)c1ccnc(N[C@H]2CC[C@@H](NC(=S)Nc3ccc4c(c3)OCCO4)CC2)n1 [compound 2349] was run?
A: 3 (Class 3 The value of percent of control at 10^−7 M was more than 60% or the value of IC50 was more than 200 nM.)

Q: CN(C)c1ccnc(N[C@H]2CC[C@@H](NC(=S)Nc3ccc4c(c3)OCO4)CC2)n1 [compound 2350] was tested. Which class did it give?
A: 3 (Class 3 The value of percent of control at 10^−7 M was more than 60% or the value of IC50 was more than 200 nM.)

Q: Cc1c(Cl)cccc1NC(=S)N[C@H]1CC[C@@H](Nc2nccc(N(C)C)n2)CC1 [compound 2351] was tested. Which class did it give?
A: 3 (Class 3 The value of percent of control at 10^−7 M was more than 60% or the value of IC50 was more than 200 nM.)

Q: With CN(C)c1ccnc(N[C@H]2CC[C@@H](NC(=S)Nc3ccc(Br)cc3OC(F)(F)F)CC2)n1 [compound 2352] as the compound, how does the class read?
A: 3 (Class 3 The value of percent of control at 10^−7 M was more than 60% or the value of IC50 was more than 200 nM.)

Q: COc1cc(NC(=S)N[C@H]2CC[C@@H](Nc3nccc(N(C)C)n3)CC2)c(OC)cc1Cl [compound 2353] was tested. Which class did it give?
A: 3 (Class 3 The value of percent of control at 10^−7 M was more than 60% or the value of IC50 was more than 200 nM.)

Q: With Cc1onc(-c2ccccc2)c1NC(=S)N[C@H]1CC[C@@H](Nc2nccc(N(C)C)n2)CC1 [compound 2354] as the compound, how does the class read?
A: 3 (Class 3 The value of percent of control at 10^−7 M was more than 60% or the value of IC50 was more than 200 nM.)

Q: Which class does the source give for COC(=O)c1scc(C)c1NC(=S)N[C@H]1CC[C@@H](Nc2nccc(N(C)C)n2)CC1 [compound 2356] here?
A: 3 (Class 3 The value of percent of control at 10^−7 M was more than 60% or the value of IC50 was more than 200 nM.)
